Assay results reported in patent US12037345B2, “Heterobicyclic compounds for inhibiting the activity of SHP2” (TAIHO PHARMACEUTICAL CO., LTD., priority 2018, dated 2024).
Read-outs that look alike come from different tables or passages of the source.

What was measured:
[1] = biological target: SHP2 (Homo sapiens (Human), UniProt Q06124); assay: SHP2 Biochemical Assay (DiFMUP conversion, pIRS1-activated); conditions: Table 19; head prints unit as "-M"
Procedure, shortened: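 Human SHP2 (10 pM) pre-incubated 30 min with compound and […] pIRS1 activating peptide, then 50 μM DiFMUP added; buffer 25 mM Bis-Tris propane pH 7.0, 150 mM NaCl, 5% DMSO. Fluorescence rate (ex 360/em 450 nm) over 30 min; IC50 by four-parameter fit, averaged across experiments.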

[2] = tested on: pERK (phospho-p44/42 ERK) in HCC827 cells; assay: Cellular pERK Inhibition Assay, Method A (In-Cell Western); type: cell-based; conditions: Table 19, head prints unit as "-M", read-out: pERK (IC50) Method A
Procedure, shortened: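 HCC827 cells in RPMI/10% FBS were treated with compounds in serum-free medium (0.2% DMSO final) at 37 °C for the indicated time, in quadruplicate. Fixed cells were immunostained for phospho-p44/42 ERK and read by infrared imaging. Blank-subtracted signal was expressed as % of DMSO control; IC50 from four-parameter logistic fit, averaged across experiments.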

SHP2, sequence (Q06124 whole entry): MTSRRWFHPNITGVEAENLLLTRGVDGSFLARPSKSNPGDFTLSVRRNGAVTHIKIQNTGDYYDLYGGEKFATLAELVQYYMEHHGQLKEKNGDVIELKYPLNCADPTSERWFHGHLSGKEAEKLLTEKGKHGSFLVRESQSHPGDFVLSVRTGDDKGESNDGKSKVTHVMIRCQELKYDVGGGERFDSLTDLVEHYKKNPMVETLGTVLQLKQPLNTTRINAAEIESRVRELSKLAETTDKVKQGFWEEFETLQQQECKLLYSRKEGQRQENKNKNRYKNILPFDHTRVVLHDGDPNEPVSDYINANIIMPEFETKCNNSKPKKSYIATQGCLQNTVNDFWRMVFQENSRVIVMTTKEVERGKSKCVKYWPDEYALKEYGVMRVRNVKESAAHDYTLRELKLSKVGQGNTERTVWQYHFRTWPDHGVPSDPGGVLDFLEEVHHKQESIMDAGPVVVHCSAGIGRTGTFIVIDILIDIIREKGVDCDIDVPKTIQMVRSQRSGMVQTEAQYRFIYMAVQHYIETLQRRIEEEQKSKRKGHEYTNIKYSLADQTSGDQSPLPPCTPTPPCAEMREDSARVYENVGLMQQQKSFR

Structure (SMILES) | IC50 [1] [nM] | IC50 [2] [nM] | IC50 ([2]; Homo sapiens) [nM]
Cn1c(N2C3CCC2CC(N)C3)nc2[nH]cc(-c3cc4nnn(C)c4c(F)c3F)c2c1=O (stereo not drawn) [Example 71, 2-(endo-3-amino-8-azabicyclo[3.2.1]octan-8-yl)-5-(6,7-difluoro-1-methyl-1H-benzo[d][1,2,3]triazol-5-yl)-3-methyl-3,7-dihydro-4H-pyrrolo[2,3-d]pyrimidin-4-one] | 260 | 5000 | –
Cn1cc2cc(-c3c[nH]c4nc(N5[C@@H]6CC[C@H]5C[C@@H](N)C6)n(C)c(=O)c34)c(F)cc2n1 [Example 72, 2-(endo-3-amino-8-azabicyclo[3.2.1]octan-8-yl)-5-(6-fluoro-2-methyl-2H-indazol-5-yl)-3-methyl-3,7-dihydro-4H-pyrrolo[2,3-d]pyrimidin-4-one] | 99 | – | 1900
COc1c(-c2c[nH]c3nc(N4C5CCC4CC(N)C5)n(C)c(=O)c23)ccc2nn(C)cc12 (stereo not drawn) [Example 73, 2-(endo-3-amino-8-azabicyclo[3.2.1]octan-8-yl)-5-(4-methoxy-2-methyl-2H-indazol-5-yl)-3-methyl-3,7-dihydro-4H-pyrrolo[2,3-d]pyrimidin-4-one] | 870 | > 10000 | –
Cn1c(N2[C@@H]3CC[C@H]2C[C@@H](N)C3)nc2[nH]cc(-c3ccc4nnn(C)c4c3Cl)c2c1=O [Example 74, 2-(endo-3-amino-8-azabicyclo[3.2.1]octan-8-yl)-5-(7-chloro-1-methyl-1H-benzo[d][1,2,3]triazol-6-yl)-3-methyl-3,7-dihydro-4H-pyrrolo[2,3-d]pyrimidin-4-one] | 170 | – | 5400
Cn1c(N2[C@@H]3CC[C@H]2C[C@@H](N)C3)nc2[nH]cc(-c3ccc4nn(CC(C)(C)O)cc4c3Cl)c2c1=O [Example 75, 2-(endo-3-amino-8-azabicyclo[3.2.1]octan-8-yl)-5-(4-chloro-2-(2-hydroxy-2-methylpropyl)-2H-indazol-5-yl)-3-methyl-3,7-dihydro-4H-pyrrolo[2,3-d]pyrimidin-4-one] | 28 | – | 2100
Cc1cc(-c2c[nH]c3nc(N4[C@@H]5CC[C@H]4C[C@@H](N)C5)n(C)c(=O)c23)c(Cl)c2cn(C)nc12 [Example 76, 2-(endo-3-amino-8-azabicyclo[3.2.1]octan-8-yl)-5-(4-chloro-2,7-dimethyl-2H-indazol-5-yl)-3-methyl-3,7-dihydro-4H-pyrrolo[2,3-d]pyrimidin-4-one] | 31 | – | 180
Cn1c(N2[C@@H]3CC[C@H]2C[C@@H](N)C3)nc2[nH]cc(-c3ccc4[nH]ncc4c3Cl)c2c1=O [Example 77] | 40 | – | 1900
Cn1nc2ccc(-c3c[nH]c4nc(N5[C@@H]6CC[C@H]5C[C@@H](N)C6)n(C)c(=O)c34)c(Cl)c2c1Cl [Example 78, 2-(endo-3-amino-8-azabicyclo[3.2.1]octan-8-yl)-5-(3,4-dichloro-2-methyl-2H-indazol-5-yl)-3-methyl-3,7-dihydro-4H-pyrrolo[2,3-d]pyrimidin-4-one] | 6 | – | 130
Cn1nc2ccc(-c3c[nH]c4nc(N5[C@@H]6CC[C@H]5C[C@@](C)(N)C6)n(C)c(=O)c34)c(Cl)c2c1Cl [Example 79, 2-(endo-3-amino-3-methyl-8-azabicyclo[3.2.1]octan-8-yl)-5-(3,4-dichloro-2-methyl-2H-indazol-5-yl)-3-methyl-3,7-dihydro-4H-pyrrolo[2,3-d]pyrimidin-4-one] | 5.5 | – | 160
Cn1nc2ccc(-c3c[nH]c4nc(N5CC6COCC(C5)N6)n(C)c(=O)c34)c(Cl)c2c1Cl [Example 80, 2-(3-oxa-7,9-diazabicyclo[3.3.1]nonan-7-yl)-5-(3,4-dichloro-2-methyl-2H-indazol-5-yl)-3-methyl-3,7-dihydro-4H-pyrrolo[2,3-d]pyrimidin-4-one] | 11 | – | 270
